Twelve compounds from US6436962B1, “Arylhydantoin derivatives and uses thereof” (Merck & Co., Inc., priority 1999, dated 2002) can be followed below.

Where a name gives a salt, the structure may show the parent alone. Some results are limits rather than exact numbers.

Usually Ki stands for a measure of affinity in units of concentration, obtained from inhibition or displacement.

The experiment concerns the target T1, human alpha 1a adrenergic receptor (Homo sapiens, UniProt P35348).
T1 sequence (P35348 1-466): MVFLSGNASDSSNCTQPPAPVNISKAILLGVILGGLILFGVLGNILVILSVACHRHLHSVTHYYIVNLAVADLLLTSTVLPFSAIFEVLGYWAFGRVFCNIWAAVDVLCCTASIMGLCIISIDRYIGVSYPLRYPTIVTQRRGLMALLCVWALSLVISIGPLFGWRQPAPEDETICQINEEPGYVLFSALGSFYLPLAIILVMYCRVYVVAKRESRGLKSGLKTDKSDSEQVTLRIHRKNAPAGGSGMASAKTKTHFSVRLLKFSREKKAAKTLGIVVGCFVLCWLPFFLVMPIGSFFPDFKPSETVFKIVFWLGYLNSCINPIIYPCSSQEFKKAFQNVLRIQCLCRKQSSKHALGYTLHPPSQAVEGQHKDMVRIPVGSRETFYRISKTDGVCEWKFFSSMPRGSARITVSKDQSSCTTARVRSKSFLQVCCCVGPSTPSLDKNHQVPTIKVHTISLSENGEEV
Description: Screening assay: alpha 1a adrenergic receptor binding ([125I]-HEAT competition). To be noted: membranes from stably transfected human alpha 1a cell line (ATCC CRL 11140), 100 pM [125I]-HEAT. Here is the method: Screening Assay: Alpha 1a Adrenergic Receptor Binding
These competition binding reactions (total volume=200 μl) contained 50 mM Tris-HCl pH. […] Reactions were incubated at room temperature for one hour with shaking. Reactions were filtered onto Whatman GF/C glass fiber filters with a Inotec 96 well cell harvester. Filters were washed three times with ice cold buffer and bound radioactivity was determined (Ki).
On to `Cc1ccc(C2(C(C)C)NC(=O)N(CCCN3CCC(C#N)(c4ccccc4C)CC3)C2=O)cc1` (racemic) [Compound 31, (+/−)-3-{3-[4-(2-methylphenyl)4-cyanopiperidin-1-yl]propyl}-5-isopropyl-5-(4-methylphenyl)-imidazolin-2,4-dione hydrochloride], for which the Ki is below 20 nM.
In turn, `Cc1ccc(C2(c3ccc(C)cc3)NC(=O)N(CCCN3CCN(c4ccccc4C(N)=O)CC3)C2=O)cc1` [Compound 25, 3-{3-[4-(2-aminocarbonylphenyl)-piperazin-1-yl]propyl}-5,5-bis(4-methylphenyl)-imidazolin-2,4-dione dihydrochloride] gave a Ki below 20 nM.
In the case of `Cc1ccc(C2(c3ccccn3)NC(=O)N(CCCN3CCC(C#N)(c4ccccc4C)CC3)C2=O)cc1` (racemic) [Compound 13, (+/−)-3-{3-[4-(2-methylphenyl)-4-cyanopiperidin-1-yl]propyl}-5-(4-methylphenyl)-5-(2-pyridyl)-imidazolin-2,4-dione] it was below 20 nM.
Next, `Cc1ccc(C2(c3ccc(C)cc3)NC(=O)N(CCCN3CCC4(C=Cc5ccccc54)CC3)C2=O)cc1` [Compound 4, 3-{3-(spiro[1H-indeno-1,4′-piperidin]-1′-yl)propyl}-5,5-bis(4-methylphenyl)-imidazolin-2,4-dione]: below 20 nM; `Cc1ccccc1C1(C#N)CCN(CCCN2C(=O)NC(c3ccc(F)cc3)(c3ccc(F)cc3)C2=O)CC1` [Compound 12, 3-{3-[4-(2-methylphenyl)-4-cyanopiperidin-1-yl]propyl}-5,5-bis(4-fluorophenyl)-imidazolin-2,4-dione hydrochloride]: below 20 nM; `Cc1ccc(C2(c3ccc(C)cc3)NC(=O)N(CCCN3CCC4(CC3)OC(=O)Nc3ccc(F)cc34)C2=O)cc1` [Compound 23, 3-{3-(6-fluoro-spiro[4H-3,1-benzoxazine4,4′-piperidin]-2(1H)-on-1′-yl)propyl}bis(4-methylphenyl)-imidazolin-2,4-dione]: below 20 nM.
Next, `CN1C(=O)OC2(CCN(CCCN3C(=O)NC(c4ccc(Cl)cc4)(c4ccc(Cl)cc4)C3=O)CC2)c2cc(Cl)ccc21` [Compound 14, 3-{3-(1-methyl-6-chloro-spiro[4H-3,1-benzoxazine-4,4′-piperidin]-2(1H)-on-1′-yl)propyl}1-5,5-bis(4-chlorophenyl)-imidazolin-2,4-dione]: below 20 nM; `Cc1ccc(C2(c3ccc(C)cc3)NC(=O)N(CCCN3CCC4(CC3)OC(=O)N(C)c3ccc(Cl)cc34)C2=O)cc1` [Compound 8, 3-{3-(1-methyl-6-chloro-spiro[4H-3,1-benzoxazine-4,4′-piperidin]-2(1H)-on-1′yl)propyl}5,5-bis(4-methylphenyl)-imidazolin-2,4-dione]: below 20 nM.
For the compound `Cc1ccc(C2(c3ccc(C)cc3)NC(=O)N(CCCN3CCC4(CC3)OC(=O)N(C)c3ccccc34)C2=O)cc1` [Compound 9], the Ki was below 20 nM.
In the case of `Cc1ccc(C2(c3ccc(C)cc3)NC(=O)N(CCCN3CCC4(CC3)C(=O)Cc3ccccc34)C2=O)cc1` [Compound 5, 3-{3-(2,3-dihydro-spiro[indeno-1,4′-piperidin]-2(3H)-on-1′-yl)propyl}-5,5-bis(4-methylphenyl)-imidazolin-2,4-dione] it was below 20 nM; in that of `Cc1ccc(C2(c3ccccc3)NC(=O)N(CCCN3CCC(C#N)(c4ccccc4)CC3)C2=O)cc1` (racemic) [Compound 11, (+/−)-3-{3-[4-phenyl4-cyanopiperidin-1-yl]propyl-}5-(4-methylphenyl)-5-phenyl-imidazolin-2,4-dione trifluoroacetate], below 20 nM; in that of `CCCCCC1(c2ccc(F)c(F)c2)NC(=O)N(CCCN2CCC(C#N)(c3ccccc3C)CC2)C1=O` (racemic) [Compound 17, (+/−)-3-{3-[4-(2-methylphenyl)-4-cyanopiperidin-1-yl]propyl}-5-pentyl-5-(3,4-difluoro-phenyl)-imdazolin-2,4-dione hydrochloride], below 20 nM.
